According to ChEMBL document CHEMBL1126341, “Synthesis of stereoisomers of 1,4:3,6-dianhydrohexitol nitrate derivative, KF-14124” (1992):

Tests used:
Format in all cases: functional
Rattus norvegicus [1] = experiment: Compound was tested for inhibition of T-wave elevation in lysine-Vasopressin -Induced-Angina Pectoris model in rats when administered intraperitoneally.; conditions: for minimal effective dose: Rattus norvegicus, ip, read-out: MED
Canis familiaris [2] = species on record: Canis familiaris; experiment: Minimum effective dose in propanol induced heart failure in left ventricular end diastolic pressure model of dog when dose given intradermally; conditions: Canis lupus familiaris, Heart left ventricle; read-out: MED
Rattus norvegicus [3] = experiment: Compound was tested for inhibition of T-wave elevation in lysine-Vasopressin -Induced-Angina Pectoris model in rats when administered perorally; conditions: po, read-out: MED
Canis familiaris [4] = species on record: Canis familiaris; experiment: Minimum effective dose in […] induced heart failure in left ventricular end diastolic pressure model of dog; conditions: Canis lupus familiaris, Heart left ventricle; read-out: MED

Compound | minimal effective dose (Rattus norvegicus [1]) [mg/kg] | minimal effective dose (Rattus norvegicus [3]) [mg/kg] | further results
O=[N+]([O-])O[C@H]1CO[C@H]2[C@@H]1OC[C@H]2N1CCN(CCCSc2ccccc2)CC1 | – | – | MED (Rattus norvegicus [1]): >25 mg/kg
O=[N+]([O-])O[C@H]1CO[C@@H]2C(N3CCN(CCCSc4ccccc4)CC3)CO[C@H]12 (single isomer, unassigned) | 12.5 | 10 | minimal effective dose (Canis familiaris [2]): 0.1 mg/kg
O=[N+]([O-])O[C@@H]1CO[C@H]2[C@@H]1OC[C@@H]2N1CCN(CCCSc2ccccc2)CC1 | > 25 | > 30 | –
O=[N+]([O-])O[C@@H]1CO[C@H]2[C@@H]1OC[C@H]2N1CCN(CCCSc2ccccc2)CC1 | > 25 | – | –
O=[N+]([O-])O[C@H]1CO[C@H]2[C@@H]1OC[C@H]2O[N+](=O)[O-] [ISOSORBIDE DINITRATE] | – | – | minimal effective dose (Canis familiaris [4]): > 0.3 mg/kg
